Where two headings read alike, the source gives them in different places.
What was measured:
Assay type in all cases: cell-based
[1] = tested on: Ba/F3 ERBB2 YVMA; test: Cell viability assay (CellTiter Glo), Ba/F3 cells engineered to express ERBB2 YVMA; settings: Mus musculus, BaF3, 72 h
Protocol: Cells were treated with compounds, and cell viability was measured as a metric of kinase inhibition.
BT-474, A431, MDA-MB-175VII, NCI-H1781, MCF7, and Ba/F3 cell lines were tested. The Ba/F3 cell line is IL-3-dependent mouse cell line derived from the C3H mouse strain. Ba/F3 cell lines were engineered to express human ERBB2 or EGFR kinases, rendering the cells IL-3 independent. The lines were generated via retroviral transduction utilizing a Moloney murine leukemia virus (MMLV) promoter, and constructs are stably integrated into the cell genome. The sequences of the ERBB2 and EGFR genes used were NCBI Reference Sequences NM 004448.3 and NM 005228.3, respectively.
BT-474, A431, MDA-MB-175VII, NCI-H1781 and MCF7 cells were grown in the appropriate growth medium as described in Table B2 below, and harvested at 50-80% confluence. BT-474, A431, MDA-MB-175VII, NCI-H1781 and MCF7 cells were counted and seeded at 2,000 or 1,500 cells per well in 384-well tissue culture plates (see Table B2). Similarly, Ba/F3 cell lines engineered to express EGFR, ERBB2, or ERBB2 mutants were grown, harvested, counted and seeded at 3000 cells per well in 96-well plates. A subset of wells contained media only (low control, “LC”).
Table B1 provides the growth media and number of cells seeded per well for the each cell line.
Compounds were dissolved in DMSO and serially diluted. Serially-diluted compound or a DMSO only control (high control, “HC”) was added to the plated cells in each well. Compounds were tested at concentrations of about 10 μM to 0.51 nM, using three-fold dilutions. The final proportion of DMSO never exceeded 0.1%.
Plates were placed in a 37° C., 5% CO2 incubator for 72 hours. Plates were then removed from the incubator and equilibrated for 15 minutes at room temperature. […] of CellTiter Glo reagent (Promega) was added to measure the relative level of metabolically active cells by quantifying intracellular ATP concentrations. Plates were incubated for 30 minutes at room temperature, and luminescence was measured. Percent viability was normalized to a vehicle control only using the following formula: % viability=100×(Lumsample−LumLC)/(LumHC−LumLC). Graphical curves were fitted using a nonlinear regression model with a sigmoidal dose response.

[2] = molecular target: phosphorylated ERBB2 (pERBB2) (Homo sapiens (Human), UniProt P04626); test: Detection of phosphorylated ERBB2 (pERBB2) by ELISA in BT-474 cells; settings: four hours incubation with compound
phosphorylated ERBB2 (pERBB2), sequence (P04626 23-1255): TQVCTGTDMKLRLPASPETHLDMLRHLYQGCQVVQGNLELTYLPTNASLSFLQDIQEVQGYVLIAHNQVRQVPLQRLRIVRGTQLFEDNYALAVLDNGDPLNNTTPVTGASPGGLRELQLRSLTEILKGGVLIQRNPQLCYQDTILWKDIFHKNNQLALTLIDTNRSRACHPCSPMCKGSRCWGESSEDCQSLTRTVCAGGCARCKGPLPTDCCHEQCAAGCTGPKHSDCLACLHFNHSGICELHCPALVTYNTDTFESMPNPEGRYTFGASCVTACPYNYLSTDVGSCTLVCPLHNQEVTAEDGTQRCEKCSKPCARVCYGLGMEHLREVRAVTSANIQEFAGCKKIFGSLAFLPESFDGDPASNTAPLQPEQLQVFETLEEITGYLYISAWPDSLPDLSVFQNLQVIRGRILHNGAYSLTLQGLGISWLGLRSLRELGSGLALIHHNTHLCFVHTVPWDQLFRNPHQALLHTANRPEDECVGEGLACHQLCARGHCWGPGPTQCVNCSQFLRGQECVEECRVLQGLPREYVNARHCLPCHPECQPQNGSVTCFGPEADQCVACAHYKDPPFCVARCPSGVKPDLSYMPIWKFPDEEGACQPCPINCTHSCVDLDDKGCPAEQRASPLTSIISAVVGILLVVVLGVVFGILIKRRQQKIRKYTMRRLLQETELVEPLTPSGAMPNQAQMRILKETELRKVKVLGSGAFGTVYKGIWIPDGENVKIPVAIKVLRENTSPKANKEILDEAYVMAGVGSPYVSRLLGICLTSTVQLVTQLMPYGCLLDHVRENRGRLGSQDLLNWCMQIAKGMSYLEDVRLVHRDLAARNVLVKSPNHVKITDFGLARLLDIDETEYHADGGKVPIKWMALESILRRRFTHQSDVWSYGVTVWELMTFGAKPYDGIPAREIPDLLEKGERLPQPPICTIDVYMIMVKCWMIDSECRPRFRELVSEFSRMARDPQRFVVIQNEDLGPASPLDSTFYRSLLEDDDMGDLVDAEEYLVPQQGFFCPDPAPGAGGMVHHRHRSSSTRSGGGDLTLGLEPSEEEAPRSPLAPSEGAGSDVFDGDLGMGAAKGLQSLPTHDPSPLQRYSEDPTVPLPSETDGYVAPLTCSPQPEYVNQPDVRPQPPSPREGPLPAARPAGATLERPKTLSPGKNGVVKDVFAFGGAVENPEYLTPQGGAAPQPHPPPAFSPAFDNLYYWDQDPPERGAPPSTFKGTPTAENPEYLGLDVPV
Protocol: BT-474 cells were seeded into a 96-well at 2.0*10^4 cells/100 μl/well. Compounds were dissolved and serially diluted in DMSO. The compounds were then were added, mixed, and incubated for four hours at 37° C., 5% CO2. […] Following the four hour incubation with compounds, cell lysates were prepared. Plates were centrifuged for 5 min at 3000 RPM, and supernatant was removed from each well. Cells were washed 3 times by resuspension in 150 μl PBS, followed by centrifugation and removal of the supernatant, as above. 100 μl of cell lysis buffer (Boston BioProducts, cat #BP-115D) supplied with 1× complete ULTRA cocktail inhibitor (Thermo ScientificTM, cat #78443) was then added to the washed cells. Cells were incubated with lysis buffer for 1 hour at 4° C., and then stored at -80° C. Enzyme-linked immunosorbent assays (ELISA) were performed to measure phosphorylated ERBB2 levels. […] The next day, plates were washed with PBS+0.05% Tween20 (PBST). 150 μl of 5% BSA blocking solution was added for 1 hour at room temperature, with shaking. Plates were washed with PB ST. Cell lysates were thawed and 100 μl of lysate was added to the ELISA plate. The plates were incubated for 2 hours at room temperature, with shaking. ELISA plates were then washed with PBST and 100 μl of an HRP-labeled detection antibody that binds phosphorylated tyrosine (R&D Systems, cat #841913) was added to each well. Plates were incubated for 1 hour at room temperature, with shaking. Plates were then washed with PBST, and 100 μl TMB substrate solution (R&D Systems, cat #DY999) was added. Plate were incubated in the dark for 20 minutes at room temperature. 50 μl of Stop solution (R&D Systems, cat #DY994) (50 μl) was added to each well and mixed. […] The remaining kinase activity by calculated using the following formula: % Relative activity=100×([…]). The low and high control values (“LC” and “HC”) were generated from lysate from wells without cells or with cells treated with 0.1% DMSO, respectively.

[3] = molecular target: phosphorylated EGFR (pEGFR) (Homo sapiens (Human), UniProt P00533); test: Detection of phosphorylated EGFR (pEGFR) in EGF-stimulated A431 cells (AlphaLISA); settings: A431 cells (10% FBS), 4 hours incubation, then EGF 30 ng/mL for 10 minutes
phosphorylated EGFR (pEGFR), sequence (P00533 25-1210): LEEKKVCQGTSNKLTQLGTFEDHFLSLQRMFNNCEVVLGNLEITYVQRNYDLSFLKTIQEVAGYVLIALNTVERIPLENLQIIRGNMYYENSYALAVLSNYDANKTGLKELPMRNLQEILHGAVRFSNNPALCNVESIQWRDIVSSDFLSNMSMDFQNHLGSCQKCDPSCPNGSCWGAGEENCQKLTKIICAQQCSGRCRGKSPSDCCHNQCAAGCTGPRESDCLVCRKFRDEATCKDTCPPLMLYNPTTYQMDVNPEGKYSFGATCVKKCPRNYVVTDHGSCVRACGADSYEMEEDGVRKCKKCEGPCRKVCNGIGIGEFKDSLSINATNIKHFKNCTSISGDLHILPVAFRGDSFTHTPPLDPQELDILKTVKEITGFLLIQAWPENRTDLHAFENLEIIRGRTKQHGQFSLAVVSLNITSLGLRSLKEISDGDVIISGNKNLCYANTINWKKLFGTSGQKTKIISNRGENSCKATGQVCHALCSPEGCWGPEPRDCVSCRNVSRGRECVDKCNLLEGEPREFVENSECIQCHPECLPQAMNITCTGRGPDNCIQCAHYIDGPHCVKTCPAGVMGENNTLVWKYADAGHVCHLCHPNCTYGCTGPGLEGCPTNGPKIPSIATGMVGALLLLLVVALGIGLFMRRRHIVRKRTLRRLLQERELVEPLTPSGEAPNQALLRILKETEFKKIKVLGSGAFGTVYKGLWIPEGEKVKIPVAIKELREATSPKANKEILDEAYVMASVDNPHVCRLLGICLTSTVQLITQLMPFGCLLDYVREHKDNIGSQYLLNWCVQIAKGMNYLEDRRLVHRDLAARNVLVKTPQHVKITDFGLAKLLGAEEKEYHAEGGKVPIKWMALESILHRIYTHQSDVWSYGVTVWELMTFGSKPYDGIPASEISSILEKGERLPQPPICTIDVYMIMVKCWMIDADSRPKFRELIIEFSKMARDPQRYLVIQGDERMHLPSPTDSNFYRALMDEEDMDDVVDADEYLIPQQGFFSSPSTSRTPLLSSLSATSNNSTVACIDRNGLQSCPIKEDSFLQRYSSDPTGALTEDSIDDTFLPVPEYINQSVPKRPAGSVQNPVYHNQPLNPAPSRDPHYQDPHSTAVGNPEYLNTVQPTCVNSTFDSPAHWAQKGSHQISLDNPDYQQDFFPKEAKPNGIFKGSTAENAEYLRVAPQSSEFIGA
Protocol: […] were performed to measure phosphorylated EGFR levels using A431 cells (10% FBS). A431 (1.0*10^4 cells/40 μl/well) cells were seeded in 384 well. Compounds were dissolved in DMSO, serially diluted in DMSO and then were added, mixed, and incubated for 4 hours at 37° C., 5% CO2. Following the 4-hours incubation, cells were stimulated for 10 minutes with EGF (Invitrogen, cat #PHG0311) at a final concentration of 30 ng/mL in the incubator. The media was aspirated and cells were lysed in […] lysis buffer with protease and phosphatase inhibitors (PerkinElmer, cat #ALSU-PEGFR-A50K). The plates were placed on a shaker for 5 minutes and then incubated for 30 min at 4° C. for complete lysis. The lysate was transferred to an Optiplate (Perkin Elmer, cat #6007290).
Acceptor mix (PerkinElmer, cat #ALSU-PEGFR-A50K) was prepared just before use and 5 μL was dispensed to all the wells, followed by a 1.5-2 h incubation at room temperature in dark. The donor mix (PerkinElmer, cat #ALSU-PEGFR-A50K) was prepared under low light conditions prior to use and […] of donor mix was added to all the wells under subdued lighting or green filters. The plates were placed on a shaker for 5 min, sealed, and incubated overnight at room temperature in dark. Plates were read on the Envision (PerkinElmer) using standard AlphaLISA settings.
The percentage of inhibition on EGFR phosphorylation was calculated following equation: % Inhibition=100×(LumHC−LumSample)/(LumHC−LumLC). The low and high controls (LC/HC) are generated from lysate from wells with cells treated with DMSO or […] Staurosporine (BioAustralis, cat #BIA-S1086), […]. IC50 values were calculated by fitting the Curve using XLfit (v5.3.1.3), equation 201: Y=Bottom+(Top−Bottom)/(1+10^((Log IC50−X)*HillSlope)).

[4] = Ba/F3 cells expressing human ERBB2 YVMA mutant, 72 hours, cell viability, CellTiter Glo, read-out: Ba/F3 ERBB2 YVMA, IC50
[5] = read-out: Ba/F3 ERBB2 YVMA, IC50, nM

IC50 [1, 4] | SMILES | IC50 [2] | IC50 [3] | IC50 [1, 5]
– | [2H]C([2H])([2H])N(C/C=C/C(=O)N1CCN2C[C@H]1COc1cc3ncnc(Nc4ccc(Oc5ccn6ncnc6c5)c(C)c4)c3nc12)C([2H])([2H])[2H] [Compound 36, (E)-1-((10S)-4-((4-([1,2,4]triazolo[1,5-a]pyridin-7-yloxy)-3-methylphenyl)amino)-7,8,10,11-tetrahydro-9H-6,10-methanopyrimido[4′,5′:5,6]pyrido[3,2-b][1,4,7]oxadiazonin-9-yl)-4-(bis(methyl-d3)amino)but-2-en-1-one formic acid] | 0.00992 µM | 1.62 µM | 6.19 nM
– | [2H]C([2H])([2H])N(C/C=C/C(=O)N1CCN2C[C@H]1COc1cc3ncnc(Nc4cc(C)c(Oc5ccn6ncnc6c5)cc4F)c3nc12)C([2H])([2H])[2H] [Compound 46, (E)-1-((10S)-4-((4-([1,2,4]triazolo[1,5-a]pyridin-7-yloxy)-2-fluoro-5-methylphenyl)amino)-7,8,10,11-tetrahydro-9H-6,10-methanopyrimido[4′,5′:5,6]pyrido[3,2-b][1,4,7]oxadiazonin-9-yl)-4-(bis(methyl-d3)amino)but-2-en-1-one] | 0.00684 µM | 2.47 µM | 7.04 nM
– | C=CC(=O)N1CCN2C[C@H]1COc1cc3ncnc(Nc4ccc(Cc5ccn6ncnc6c5)c(C)c4)c3nc12 [Compound 13, 1-((10S)-4-((4-([1,2,4]triazolo[1,5-a]pyridin-7-ylmethyl)-3-methylphenyl)amino)-7,8,10,11-tetrahydro-9H-6,10-methanopyrimido[4′,5′:5,6]pyrido[3,2-b][1,4,7]oxadiazonin-9-yl)prop-2-en-1-one] | 0.0158 µM | 1.58 µM | 8.92 nM
– | C=CC(=O)N1CCN2C[C@@H]1COc1cc3ncnc(Nc4ccc(Cc5ccn6ncnc6c5)c(C)c4)c3nc12 [Compound 19] | – | > 10 µM | > 500 nM
8.66 nM | Cc1cc(Nc2ncnc3cc4c(nc23)N2CCCN(C(=O)/C=C/CN(C)C)C(CO4)C2)ccc1Oc1ccn2ncnc2c1 (racemic) [Compound 54, (E)-1-(4-((4-([1,2,4]triazolo[1,5-a]pyridin-7-yloxy)-3-methylphenyl)amino)-8,9,11,12-tetrahydro-6,11-methanopyrimido[4′,5′:5,6]pyrido[3,2-b][1,4,8]oxadiazecin-10(7H)-yl)-4-(dimethylamino)but-2-en-1-one] | 0.0292 µM | > 10 µM | –
– | Cc1cc(Nc2ncnc3cc4c(nc23)N2CCCN(C(=O)/C=C/CN(C)C)C(CO4)C2)ccc1Oc1ccn2ncnc2c1 (single isomer, unassigned) [Example S55, Enantiomer 2, (E)-1-(4-((4-([1,2,4]triazolo[1,5-a]pyridin-7-yloxy)-3-methylphenyl)amino)-8,9,11,12-tetrahydro-6,11-methanopyrimido[4′,5′:5,6]pyrido[3,2-b][1,4,8]oxadiazecin-10(7H)-yl)-4-(dimethylamino)but-2-en-1-one] | 0.304 µM | – | –
– | Cc1cc(Nc2ncnc3cc4c(nc23)N2CCCN(C(=O)/C=C/CN(C)C)C(CO4)C2)ccc1Oc1ccn2ncnc2c1 (single isomer, unassigned) [Example S55, Enantiomer 1, (E)-1-(4-((4-([1,2,4]triazolo[1,5-a]pyridin-7-yloxy)-3-methylphenyl)amino)-8,9,11,12-tetrahydro-6,11-methanopyrimido[4′,5′:5,6]pyrido[3,2-b][1,4,8]oxadiazecin-10(7H)-yl)-4-(dimethylamino)but-2-en-1-one] | 0.0174 µM | – | –
4.54 nM | CN(C)C/C=C/C(=O)N1CCN2C[C@H]1COc1cc3ncnc(Nc4ccc(Oc5ccn6ncnc6c5)c(Cl)c4)c3nc12 [Compound 32, (E)-1-((10S)-4-((4-([1,2,4]triazolo[1,5-a]pyridin-7-yloxy)-3-chlorophenyl)amino)-7,8,10,11-tetrahydro-9H-6,10-methanopyrimido[4′,5′:5,6]pyrido[3,2-b][1,4,7]oxadiazonin-9-yl)-4-(dimethylamino)but-2-en-1-one] | – | – | –
13 nM | Cc1cc(Nc2ncnc3cc4c(nc23)N2CCN(C(=O)/C=C/[C@H](C)N(C)C)[C@H](CO4)C2)c(F)cc1Oc1ccn2ncnc2c1 [Compound 47, (4S,E)-1-((10S)-4-((4-([1,2,4]triazolo[1,5-a]pyridin-7-yloxy)-2-fluoro-5-methylphenyl)amino)-7,8,10,11-tetrahydro-9H-6,10-methanopyrimido[4′,5′:5,6]pyrido[3,2-b][1,4,7]oxadiazonin-9-yl)-4-(dimethylamino)pent-2-en-1-one] | – | – | –

SMILES | IC50 [1, 4] | IC50 [2] | IC50 [3] | IC50 [1, 5]
[2H]C([2H])(/C=C/C(=O)N1CCN2C[C@H]1COc1cc3ncnc(Nc4cc(C)c(Oc5ccn6ncnc6c5)cc4F)c3nc12)N(C)C [Compound 58, (E)-1-((10S)-4-((4-([1,2,4]triazolo[1,5-a]pyridin-7-yloxy)-2-fluoro-5-methylphenyl)amino)-7,8,10,11-tetrahydro-9H-6,10-methanopyrimido[4′,5′:5,6]pyrido[3,2-b][1,4,7]oxadiazonin-9-yl)-4-(dimethylamino)but-2-en-1-one-4,4-d2] | 7.79 nM | 0.0055 µM | 0.869 µM | –
[2H]C([2H])([2H])N(C([2H])([2H])[2H])C([2H])([2H])/C=C/C(=O)N1CCN2C[C@H]1COc1cc3ncnc(Nc4cc(C)c(Oc5ccn6ncnc6c5)cc4F)c3nc12 [Compound 59, (E)-1-((10S)-4-((4-([1,2,4]triazolo[1,5-a]pyridin-7-yloxy)-2-fluoro-5-methylphenyl)amino)-7,8,10,11-tetrahydro-9H-6,10-methanopyrimido[4′,5′:5,6]pyrido[3,2-b][1,4,7]oxadiazonin-9-yl)-4-(bis(methyl-d3)amino)but-2-en-1-one-4,4-d2] | 6.5 nM | 0.009 µM | 1.38 µM | –

— patent US11807649B2, “Fused tetracyclic quinazoline derivatives as inhibitors of ErbB2” (EnLiven Therapeutics, Inc., priority 2021, dated 2023)
